Experiment [1] deals with T1, Mu-type opioid receptor (Homo sapiens, UniProt P35372). The experiment is described as follows: (§1) Binding affinity towards Opioid receptor mu 1 using [3H]- CTOP as radioligand.
For experiment [2], the target named is Mu-type opioid receptor (Cavia porcellus) (UniProt P97266). Briefly: In vitro bioassay data to determine the effective concentration required for antagonistic activity against Opioid receptor mu 1 in functional assay, GPI at a concentration of 82 uM. The arrangement: scale not given: the % may be the effect or the level left.
Experiment [3] deals with T1, Mu-type opioid receptor. The description is as §1. The source holds these as a separate data set.
In experiment [4] the target is Delta-type opioid receptor (Rattus norvegicus, UniProt P33533). The experiment is described as follows: Binding affinity towards Opioid receptor delta 1 using [3H]- [p-CIPhe4] DPDPE as radioligand.
For experiment [5], the target named is Mu-type opioid receptor (Cavia porcellus, UniProt P97266). Briefly: In vitro bioassay data to determine the effective concentration required for antagonistic activity against Opioid receptor mu 1 in functional assay, GPI.
Experiment [6] deals with Delta-type opioid receptor (Mus musculus, UniProt P32300). Briefly: In vitro bioassay data to determine the effective concentration required for antagonistic activity against Opioid receptor delta 1 in functional assay, MVD.
Experiment [7] addresses Mu-type opioid receptor (Cavia porcellus) (UniProt P97266). Briefly: In vitro bioassay data to determine the effective concentration required for antagonistic activity against Opioid receptor mu 1 in functional assay, GPI at a concentration of 60 uM. The arrangement: scale not given: the % may be the effect or the level left.

For three compounds, Activity, IC50 and EC50 results are on record in ChEMBL document CHEMBL1145107, “Peptide science: exploring the use of chemical principles and interdisciplinary collaboration for understanding life processes” (J Med Chem, 2003).

SMILES strings stand for the structures. *1 amine or outer side, *2 acyl side, *3 side chain or, on linkers, in order; H or OH if unused. Where a SMILES comes first, the peptide text is derived from it. [ ]: non-standard residue; d: D form. X1 = Cc1cc(O)cc(C)c1[C@H](C)[C@@H](N[*:1])C(=O)[*:2]; X3 = Cc1cc(O)cc(C)c1[C@@H](C)[C@H](N[*:1])C(=O)[*:2]; Pen = CC(C)(S)[C@H](N)C(=O)O

Mu-type opioid receptor (Cavia porcellus), sequence (P97266 whole entry): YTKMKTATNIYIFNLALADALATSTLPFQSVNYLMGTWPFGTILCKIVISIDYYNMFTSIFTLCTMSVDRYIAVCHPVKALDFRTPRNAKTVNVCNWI
T1 sequence (P35372 whole entry): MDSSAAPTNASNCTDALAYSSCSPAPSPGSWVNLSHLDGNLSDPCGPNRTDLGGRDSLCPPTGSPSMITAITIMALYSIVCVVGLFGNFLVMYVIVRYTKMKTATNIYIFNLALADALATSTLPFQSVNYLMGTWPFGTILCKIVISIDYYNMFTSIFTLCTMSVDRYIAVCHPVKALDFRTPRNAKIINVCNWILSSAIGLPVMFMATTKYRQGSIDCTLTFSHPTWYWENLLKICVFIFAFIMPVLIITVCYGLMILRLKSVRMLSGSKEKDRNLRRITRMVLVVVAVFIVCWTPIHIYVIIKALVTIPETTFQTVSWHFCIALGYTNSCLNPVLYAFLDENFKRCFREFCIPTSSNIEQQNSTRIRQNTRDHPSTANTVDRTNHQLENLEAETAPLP
Mu-type opioid receptor (Cavia porcellus, UniProt P97266), sequence (P97266 whole entry): as the sequence (P97266 whole entry) above
Delta-type opioid receptor (Rattus norvegicus, UniProt P33533), sequence (P33533 whole entry): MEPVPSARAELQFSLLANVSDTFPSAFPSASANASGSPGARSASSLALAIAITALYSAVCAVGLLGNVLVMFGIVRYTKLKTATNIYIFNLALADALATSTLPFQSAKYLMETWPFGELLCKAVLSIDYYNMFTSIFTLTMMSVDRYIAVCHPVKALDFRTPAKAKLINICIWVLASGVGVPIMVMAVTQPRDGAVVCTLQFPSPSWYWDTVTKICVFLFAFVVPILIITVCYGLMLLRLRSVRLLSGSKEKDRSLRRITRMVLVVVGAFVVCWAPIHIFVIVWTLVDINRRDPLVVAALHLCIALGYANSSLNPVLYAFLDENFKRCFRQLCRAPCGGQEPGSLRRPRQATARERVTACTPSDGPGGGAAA
Delta-type opioid receptor (Mus musculus, UniProt P32300), sequence (P32300 whole entry): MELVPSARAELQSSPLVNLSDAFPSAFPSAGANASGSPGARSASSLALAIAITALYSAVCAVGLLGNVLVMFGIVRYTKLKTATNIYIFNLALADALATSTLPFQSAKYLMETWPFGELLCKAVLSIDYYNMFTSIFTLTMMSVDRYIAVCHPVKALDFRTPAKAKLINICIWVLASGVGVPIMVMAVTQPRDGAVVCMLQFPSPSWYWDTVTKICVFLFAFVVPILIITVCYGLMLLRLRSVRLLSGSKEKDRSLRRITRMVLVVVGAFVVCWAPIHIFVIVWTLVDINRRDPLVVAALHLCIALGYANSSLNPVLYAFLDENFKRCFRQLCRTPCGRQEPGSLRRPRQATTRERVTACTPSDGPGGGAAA

With `Cc1cc(O)cc(C)c1[C@H](C)[C@@H](N)C(=O)N[C@H](C(=O)NCC(=O)N[C@@H](Cc1ccccc1)C(=O)N[C@H](C(=O)O)C(C)(C)S)C(C)(C)S` (H-[X1][Pen]GF[Pen]-OH), the figures for the Activity (at Mu-type opioid receptor [1]; in experiment [2]) were 0% and 75%, respectively.

As to `Cc1cc(O)cc(C)c1[C@@H](C)[C@@H](N)C(=O)N[C@H]1C(=O)NCC(=O)N[C@@H](Cc2ccccc2)C(=O)N[C@@H](C(=O)O)C(C)(C)SSC1(C)C`, the IC50 at Mu-type opioid receptor [3] came to 77 µM; in experiment [4], 3.5 µM. Also, the EC50 came to 50 µM on Mu-type opioid receptor [5] and 2.2 µM in experiment [6].

In experiment [7], `Cc1cc(O)cc(C)c1[C@@H](C)[C@H](N)C(=O)N[C@H](C(=O)NCC(=O)N[C@@H](Cc1ccccc1)C(=O)N[C@H](C(=O)O)C(C)(C)S)C(C)(C)S` (H-[X3][Pen]GF[Pen]-OH) showed an Activity of 0%.
